Measured values taken from US9006228B2 (Merck Sharp & Dohme Corp., priority 2011, dated 2015).

Target: T1, human GPR119 (Homo sapiens, UniProt Q8TDV5)
T1 sequence (Q8TDV5 1-308 limits assumed): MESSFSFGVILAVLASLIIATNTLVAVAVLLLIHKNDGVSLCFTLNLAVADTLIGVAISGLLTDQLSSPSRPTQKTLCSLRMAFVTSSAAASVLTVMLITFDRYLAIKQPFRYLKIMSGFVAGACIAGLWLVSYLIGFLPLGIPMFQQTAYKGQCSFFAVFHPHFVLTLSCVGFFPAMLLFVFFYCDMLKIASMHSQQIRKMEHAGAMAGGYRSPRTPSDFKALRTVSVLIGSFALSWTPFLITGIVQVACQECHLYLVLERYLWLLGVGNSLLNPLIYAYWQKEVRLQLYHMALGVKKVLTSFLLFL
Assay: Measurement of GPR119 signaling (cAMP assay; LANCE kit or HTRF) in HEK293 cells stably transfected with human GPR119
Assay type: cell-based
Details: agonist-stimulated cAMP in HEK293 cells expressing human GPR119
Description: Measurement of GPR119 Signaling Using LANCE 384-Well cAMP Kit
The adenylate cyclase assay was constructed following the LANCE™ cAMP Kit (Perkin Elmer, AD0264) instructions. […] The reaction was stopped by incubating with the supplied detection buffer containing the europium chelate of the Eu-SA/Biotin-cAMP tracer for 3 hours. The assay was performed in duplicate in a 384 well plate for duplicate plates. Fluorescence at 665 nm was measured using a PHERAstar instrument. Basal activity was determined using a DMSO control and maximum response was defined as cAMP stimulation produced by an internal agonist control. Standard cAMP concentrations were assayed concurrently for conversion of fluorescence signal to cAMP level. The data was analyzed using 4-parameter curve fit in Microsoft Excel.
Measurement of GPR119 Signaling Using a Cyclic AMP (cAMP) Homogenous Time Resolved Fluorescence (HTRF) Assay
Chinese hamster ovary (CHO) cell lines stably transfected with the permissive guanine nucleotide binding protein alpha 15 (Gα15) and murine GPR119 were maintained in DMEM media containing FBS, penicillin-streptomycin, puromycin, and G418 (geneticin). […] Agonist activation of the GPR119 receptor was measured in receptor transfected cells described above, treated with compounds of this invention, using a commercial homogenous time resolved fluorescence (HTRF) kit for measurement of cAMP (CisBio, Bedford, Mass.). The assay was performed in 96-well half-volume plates (murine) or 384-well plates (human) following the manufacturers instructions. Briefly, suspended cells were incubated with a dose titration of test compound at RT for 60 min, lysed, and incubated with HTRF reagents for an additional 60 min. The plate was read using an Envision multilabel reader (Perkin Elmer) adjusted to read time resolved fluorescence and the cAMP concentrations were extrapolated from a cAMP calibration curve. […] The concentration of test compound required to stimulate a half-maximal response (EC50), and efficacy as compared to an internal agonist control, was determined from a sigmoidal 4-parameter curve fit of the resulting plot of normalized activity versus compound concentration.

| Compound | EC50 [nM] |
| --- | --- |
| COC(C)c1cnc(N2CCC([C@H]3C[C@H]3COCc3ccc(S(C)(=O)=O)cc3F)CC2)nc1 (single isomer, unassigned) [Example 125] | 0.36 |
| COC(C)c1cnc(N2CCC([C@H]3C[C@H]3COCc3ccc(S(C)(=O)=O)cc3F)CC2)nc1 (single isomer, unassigned) [Example 126] | 1.5 |
| COC(C)c1cnc(N2CCC([C@H]3C[C@H]3COCc3ccc(S(C)(=O)=O)c(F)c3)CC2)nc1 (single isomer, unassigned) [Example 130] | 0.72 |
| COC(C)c1cnc(N2CCC([C@H]3C[C@H]3COCc3ccc(S(C)(=O)=O)c(F)c3)CC2)nc1 (single isomer, unassigned) [Example 131] | 1.03 |
| CS(=O)(=O)c1ccc(COC[C@@H]2C[C@@H]2C2CCN(c3ncc(Cl)cn3)CC2)nc1 [Example 1, 5-chloro-2-{4-[(1R,2R)-2-({[5-(methylsulfonyl)pyridin-2-yl]methoxy}methyl)cyclopropyl]piperidin-1-yl}pyrimidine] | 8.7 |
| Cc1cnc(N2CCC([C@H]3C[C@H]3COCc3ccc(S(C)(=O)=O)cn3)CC2)nc1 [Example 2, 5-methyl-2-{4-[(1R,2R)-2-({[5-(methylsulfonyl)pyridin-2-yl]methoxy}methyl)cyclopropyl]piperidin-1-yl}pyrimidine] | 10.8 |
| CCc1cnc(N2CCC([C@H]3C[C@H]3COCc3ccc(S(C)(=O)=O)cn3)CC2)nc1 [Example 3, 5-ethyl-2-{4-[(1R,2R)-2-({[5-(methylsulfonyl)pyridin-2-yl]methoxy}methyl)cyclopropyl]piperidin-1-yl}pyrimidine] | 1.5 |
| CS(=O)(=O)c1ccc(COC[C@@H]2C[C@@H]2C2CCN(c3ncc(Br)cn3)CC2)nc1 [Example 4, 5-bromo-2-{4-[(1R,2R)-2-({[5-(methylsulfonyl)pyridin-2-yl]methoxy}methyl)cyclopropyl]piperidin-1-yl}pyrimidine] | 1 |
| CS(=O)(=O)c1ccc(COC[C@@H]2C[C@@H]2C2CCN(c3ncc(F)cn3)CC2)nc1 [Example 5, 5-fluoro-2-{4-[(1R,2R)-2-({[5-(methylsulfonyl)pyridin-2-yl]methoxy}methyl)cyclopropyl]piperidin-1-yl}pyrimidine] | 21 |
| COc1cnc(N2CCC([C@H]3C[C@H]3COCc3ccc(S(C)(=O)=O)cn3)CC2)nc1 [Example 6, 5-methoxy-2-{4-[(1R,2R)-2-({[5-(methylsulfonyl)pyridin-2-yl]methoxy}methyl)cyclopropyl]piperidin-1-yl}pyrimidine] | 15 |
| CS(=O)(=O)c1ccc(COC[C@@H]2C[C@@H]2C2CCN(c3ncc(-c4cn[nH]c4)cn3)CC2)nc1 [Example 7] | 15.6 |
| CCCOC(=O)N1CCC([C@H]2C[C@H]2COCc2ccc(S(C)(=O)=O)cc2)CC1 [Example 8, propyl 4-[(1R,2R)-2-({[4-(methylsulfonyl)benzyl]oxy}methyl)cyclopropyl]piperidine-1-carboxylate] | 16 |
| CC(C)OC(=O)N1CCC([C@H]2C[C@H]2COCc2ccc(S(C)(=O)=O)cc2)CC1 [Example 9, isopropyl 4-[(1R,2R)-2-({[4-(methylsulfonyl)benzyl]oxy}methyl)cyclopropyl]piperidine-1-carboxylate] | 16 |
| CC(C)COC(=O)N1CCC([C@H]2C[C@H]2COCc2ccc(S(C)(=O)=O)cc2)CC1 [Example 10, isobutyl 4-[(1R,2R)-2-({[4-(methylsulfonyl)benzyl]oxy}methyl)cyclopropyl]piperidine-1-carboxylate] | 8.2 |
| CC1(OC(=O)N2CCC([C@H]3C[C@H]3COCc3ccc(S(C)(=O)=O)cc3)CC2)CC1 [Example 11, 1-methylcyclopropyl 4-[(1R,2R)-2-({[4-(methylsulfonyl)benzyl]oxy}methyl)cyclopropyl]piperidine-1-carboxylate] | 3.9 |
| CS(=O)(=O)c1ccc(COC[C@@H]2C[C@@H]2C2CCN(C(=O)OC3CCC3)CC2)cc1 [Example 12, cyclobutyl 4-[(1R,2R)-2-({[4-(methylsulfonyl)benzyl]oxy}methyl)cyclopropyl]piperidine-1-carboxylate] | 8.2 |
| CS(=O)(=O)c1ccc(COC[C@@H]2C[C@@H]2C2CCN(C(=O)OCC3CC3)CC2)cc1 [Example 13, cyclopropylmethyl 4-[(1R,2R)-2-({[4-(methylsulfonyl)benzyl]oxy}methyl)cyclopropyl]piperidine-1-carboxylate] | 3.2 |
| CS(=O)(=O)c1ccc(COC[C@@H]2C[C@@H]2C2CCN(c3ncc(Cl)cn3)CC2)cc1 [Example 14, 5-chloro-2-{4-[(1R,2R)-2-({[4-(methylsulfonyl)benzyl]oxy}methyl)cyclopropyl]piperidin-1-yl}pyrimidine] | 0.7 |
| COc1cnc(N2CCC([C@H]3C[C@H]3COCc3ccc(S(C)(=O)=O)cc3)CC2)nc1 [Example 15, 5-methoxy-2-{4-[(1R,2R)-2-({[4-(methylsulfonyl)benzyl]oxy}methyl)cyclopropyl]piperidin-1-yl}pyrimidine] | 0.4 |
| CS(=O)(=O)c1ccc(COC[C@@H]2C[C@@H]2C2CCN(c3ncc(F)cn3)CC2)cc1 [Example 16, 5-fluoro-2-{4-[(1R,2R)-2-({[4-(methylsulfonyl)benzyl]oxy}methyl)cyclopropyl]piperidin-1-yl}pyrimidine] | 5.8 |
| COC(=O)c1cnc(N2CCC([C@H]3C[C@H]3COCc3ccc(S(C)(=O)=O)cc3)CC2)nc1 [Example 17, methyl 2-{4-[(1R,2R)-2-({[4-(methylsulfonyl)benzyl]oxy}methyl)cyclopropyl]piperidin-1-yl}pyrimidine-5-carboxylate] | 20 |
| CS(=O)(=O)c1ccc(COC[C@@H]2C[C@@H]2C2CCN(c3ncc(C4CC4)cn3)CC2)cc1 [Example 18, 5-cyclopropyl-2-{4-[(1R,2R)-2-({[4-(methylsulfonyl)benzyl]oxy}methyl)cyclopropyl]piperidin-1-yl}pyrimidine] | 1 |
| CC(C)Cc1cnc(N2CCC([C@H]3C[C@H]3COCc3ccc(S(C)(=O)=O)cc3)CC2)nc1 [Example 19, 5-isobutyl-2-{4-[(1R,2R)-2-({[4-(methylsulfonyl)benzyl]oxy}methyl)cyclopropyl]piperidin-1-yl}pyrimidine] | 0.13 |
| CCc1cnc(N2CCC([C@H]3C[C@H]3COCc3ccc(S(C)(=O)=O)cc3)CC2)nc1 [Example 20, 5-ethyl-2-{4-[(1R,2R)-2-({[4-(methylsulfonyl)benzyl]oxy}methyl)cyclopropyl]piperidin-1-yl}pyrimidine] | 0.74 |
| Cc1cnc(N2CCC([C@H]3C[C@H]3COCc3ccc(S(C)(=O)=O)cc3)CC2)nc1 [Example 21, 5-methyl-2-{4-[(1R,2R)-2-({[4-(methylsulfonyl)benzyl]oxy}methyl)cyclopropyl]piperidin-1-yl}pyrimidine] | 1.6 |
| CCCc1cnc(N2CCC([C@H]3C[C@H]3COCc3ccc(S(C)(=O)=O)cc3)CC2)nc1 [Example 22, 2-{4-[(1R,2R)-2-({[4-(methylsulfonyl)benzyl]oxy}methyl)cyclopropyl]piperidin-1-yl}-5-propylpyrimidine] | 0.3 |
